The record followed here is patent US11384381B2, “Reaction accelerating agent” (Kikkoman Corporation, priority 2016, dated 2022).

Test [1] deals with CFP-DH4 (A1cOX). As to the kind of experiment: HbA1c detection reaction completed with excess A1cOX (Example 4). In kind it is biochemical. As to conditions: 0.04% (w/v) compound, 5.3 mg/ml CFP-DH4 (excess), blood cells 10.4% HbA1c, pH 6.5, 37° C.; for ΔA9 min: change in A694-A751 9 minutes after mixing sample with first reagent; for ΔA10 min: change in A694-A751 10 minutes after mixing sample with first reagent, defined as ΔA100%. As for the experimental part:
In this Example, the amount of change in absorbance when an excess amount of A1cOX is used and HbA1c detection reaction was completed is determined.
A reagent for HbA1c measurement having the following composition was prepared, and the measurement of HbA1c was carried out using Bio Majesty JCA-BMI650 (manufactured by JEOL Ltd.).
Blood cells (10.4% HbA1c (NGSP value))
30 mM MOPS-NaOH buffer solution, pH 6.5
0.2% (w/v) n-dodecyl-β-D-maltoside (manufactured by Dojindo Laboratories)
(§1) 10 U/ml peroxidase PEO-301 (Toyobo Co., Ltd.)
(§2) 0.023 mM 10-(carboxymethylaminocarbonyl)-3,7-bis(dimethylamino)phenothiazine sodium (DA-67, manufactured by Wako Pure Chemical Industries, Ltd.)
0.04% (w/v) of the compound of Comparative Example 2 (Wako Pure Chemical Industries, Ltd.), any one compound of the present invention (all from Tokyo Chemical Industry Co., Ltd. except for Acid Yellow 34 from MP Biomedicals, LLC), or compound-free (Comparative Example 1) ion-exchange water as shown in Table 1 (Second Reagent-A) 10 mM MOPS-NaOH buffer solution, pH 6.5 5.3 mg/ml CFP-DH4 (A cOX)
8 μl of the sample diluted 51-fold with ion-exchange water was added to 96 μl of the first reagent-A, and the mixture was incubated at 37° C. for 5 minutes. Then, 24 μl of the second reagent-A was added thereto, and the quantitative reaction of hydrogen peroxide resulting from the oxidation of the β-chain amino terminus of HbA1c was allowed to progress at 37° C. for 5 minutes. The absorbance (A694 and A751) of the reaction solution for light at wavelengths of 694 nm and 751 nm was measured over time for 10 minutes after the mixing of the diluted sample with the first reagent-A to determine the value subtracting of A751 from A694, i.e., the value A694/751. Subsequently, ΔA was calculated by subtracting, from A694/751, the value of (104/128) times A694/751 4.8 minutes after mixing the diluted sample with the first reagent-A. Incidentally, 4.8 minutes after the mixing of the diluted sample with the first reagent-A represents the time immediately before the addition of the second reagent-A. ΔA 9 minutes and 10 minutes after the mixing of the diluted sample with the first reagent (ΔA9min and ΔA10min) are shown in Table 1.
In other words, it can be recognized that the quantitative reaction of HbA1c, i.e., the quantitative reaction of hydrogen peroxide resulting from the oxidation of HbA1c, was completed in 10 minutes after the mixing of the diluted sample with the first reagent-A. Accordingly, in Examples 4 and 5, ΔA10min in each Comparative Example or the present invention was defined as ΔA when 100% of the quantitative reaction of HbA1c progressed under each condition (ΔA100%).

Test [2] deals with cholesterol oxidase (CHO-CE). As to the kind of experiment: Cholesterol detection reaction completed with excess cholesterol oxidase (Example 12). In kind it is biochemical. As to conditions: 0.04% (w/v) compound, 11.6 U/ml CHO-CE (excess), 32 μM cholesterol, pH 7.0, 37° C.; for ΔA9 min: change in A694-A751 9 minutes after mixing; for ΔA10 min: change in A694-A751 10 minutes after mixing, defined as ΔA100%. As for the experimental part:
In this Example the amount of change in absorbance is determined when the detection reaction for the substrate cholesterol was completed using an excess amount of cholesterol oxidase (CHO-CE), which is an oxidase.
A reagent for cholesterol measurement having the following composition was prepared, and the measurement of cholesterol using cholesterol oxidase was carried out using Bio Majesty JCA-BM 1650 (manufactured by JEOL Ltd.).
32 μM cholesterol (manufactured by Wako Pure Chemical Industries, Ltd.)
5.0% (v/v) Triton X-100 (manufactured by Wako Pure Chemical Industries, Ltd.)
4.0% (w/v) sodium cholate (manufactured by Wako Pure Chemical Industries, Ltd.)
30 mM MOPS-NaOH buffer solution, pH 7.0
as §1, §2
0.04% (w/v) of the compound of Comparative Example 2, any one compound of the present invention, or compound-free (Comparative Example 1) ion-exchange water as shown in Table 1
10 mM MOPS-NaOH buffer solution, pH 7.0
11.6 U/ml CHO-CE (manufactured by Kikkoman Biochemifa Company)
8 μl of the sample was added to 96 μl of the first reagent-E, and the mixture was incubated at 37° C. for 5 minutes. Then, 24 μl of the second reagent-I was added thereto, and the quantitative reaction of hydrogen peroxide resulting from the oxidation of cholesterol was allowed to progress at 37° C. for 5 minutes. The absorbance (A694 and A751) of the reaction solution for light at wavelengths of 694 nm and 751 nm was measured over time for 10 minutes after the mixing of the sample with the first reagent-E to determine the value of subtraction of A751 from A694, i.e., the value A694/751. Subsequently, ΔA was calculated by subtracting, from A694/751, the value of (104/128) times A694/751 4.8 minutes after the mixing of the sample with the first reagent-E. Incidentally, 4.8 minutes after the mixing of the sample with the first reagent-E represents the time immediately before the addition of the second reagent-I. ΔA 9 minutes and 10 minutes after the mixing of the diluted sample with the first reagent-E (ΔA9min and ΔA10min) are shown in Table 9.
In other words, it can be recognized that the quantitative reaction of cholesterol, i.e., the quantitative reaction of hydrogen peroxide resulting from the oxidation of cholesterol, was completed in 10 minutes after the mixing of the diluted sample with the first reagent-E. Accordingly, in Examples 12 and 13, ΔA10min in each Comparative Example or the present invention was defined as ΔA when 100% of the quantitative reaction of cholesterol progressed under each condition (ΔA100%).

In the case of `Cc1nn(-c2cc(S(=O)(=O)[O-])ccc2Cl)c(O)c1N=Nc1ccccc1.[Na+]` [Acid Yellow 34], in test [1], the ΔA9 min is on record as 0.011 and the ΔA10 min is on record as 0.011. In test [2], this compound came in with a ΔA9 min of 0.033 and a ΔA10 min of 0.033.
In test [2], `COc1cc(N=Nc2ccc(N)cc2)c(C)cc1N` [Disperse Diazo Black 3BF] gave a ΔA9 min of 0.028 and a ΔA10 min of 0.032.
Xylene Fast Yellow 2G: in test [1], the ΔA9 min was found to be 0.015 and the ΔA10 min came out at 0.015.
`O=C([O-])c1cc(N=Nc2cccc([N+](=O)[O-])c2)ccc1O.[Na+]` [Alizarin Yellow GG]: the figures for the ΔA9 min in test [1] and in test [2] were 0.016 and 0.039, respectively. In addition, the ΔA10 min turned out to be 0.016 in test [1] and 0.039 in test [2].
In test [1], `O=C(O)c1cc(N=Nc2ccc3cc(S(=O)(=O)O)ccc3c2)ccc1O.[Na]` [Chrome Yellow] had a ΔA9 min of 0.024 and a ΔA10 min of 0.024. In test [2], this compound gave a ΔA9 min of 0.071 and a ΔA10 min of 0.072.
Consider Acid Red 151, for which, in test [1], the ΔA9 min was found to be 0.014 and the ΔA10 min was determined as 0.014. In test [2], this compound came in with a ΔA9 min of 0.036 and a ΔA10 min of 0.036.
In the case of `O=C([O-])c1cc(N=Nc2ccc([N+](=O)[O-])cc2)ccc1O.[Na+]` [Mordant Orange 1], the ΔA9 min in test [1] was found to be 0.016; in test [2], 0.041. The values for the ΔA10 min in test [1] and in test [2] were 0.016 and 0.041, respectively.
As for `COc1cc(N=Nc2cccc(S(=O)(=O)[O-])c2)ccc1NC(=O)Nc1ccc(N=Nc2ccc(O)c(C(=O)[O-])c2)cc1.[Na+].[Na+]` [Direct Yellow 44], in test [1], the ΔA9 min is given as 0.017 and the ΔA10 min amounted to 0.017.
In test [1], `O=S(=O)([O-])c1cccc(N=Nc2ccc(Nc3ccccc3)cc2)c1.[Na+]` [Acid Yellow 36] yielded a ΔA9 min of 0.011 and a ΔA10 min of 0.011. Moreover, in test [2], the ΔA9 min is on record as 0.033 and the ΔA10 min amounted to 0.033.
